These results are taken from article PMC4414146, “PACE4 inhibitors and their peptidomimetic analogs block prostate cancer tumor progression through quiescence induction, increased apoptosis and impaired neovascularisation” (Oncotarget, 2015).

Series [1] is described as follows: LNCaP cell-based peptide stability assay. To be noted: human, LNCaP cells, HPLC, read-out: T½ LNCaP cells (converted). The class given is in vitro ADME. Here is the method: (§1) LNCaP cell-based stability assays were performed in Poly-(L)lysine coated 96-wells plates seeded at a density of 1,500 cells/wells. 100 μg of peptides were added 24 hours after plating without media change. Media was collected and mixed with 5 μL of trifluororacetic acid 5% to stop peptide degradation. Ex vivo plasmatic stability assays were performed as previously described. Briefly, compounds (0.5 μg/μL) were incubated with CD1 mouse plasma from mixed-sex animals collected with heparin sodium (Novi, USA). Reaction was stop by addition of 150 μL guanidine HCl and 300 μL of acetonitrile and peptides were extracted by centrifugation. For both in vitro and ex vivo stability assays, peptide stability was assessed from reverse phase HPLC and percentage of remaining peptide was calculated from area under curve and normalized to time 0.

Details of series [2]: method as in Kwiatkowska et al [22]. The settings on record: ex vivo mouse plasma; ref Kwiatkowska et al [22]; cited from earlier work.
In series [3] the test system is LNCaP prostate cancer cell line. To be noted: MTT assay; ref Kwiatkowska et al [22]; cited from earlier work. In general terms: Tetrazolium dyes change colour on reduction, which living cells bring about.
Series [4] relates to DU145 prostate cancer cell line. The settings on record: MTT assay; ref Kwiatkowska et al [22]; cited from earlier work.
The subject of series [5] is LNCaP xenograft. Briefly: LNCaP xenograft, intratumoral administration. The class given is in vivo, Nu/Nu male mice. To be noted: intra-tumoral, 50 μg/tumor per 48 h; vehicle 400 ± 100%. Here is the method:
For tumor implantation, trypsin-harvested LNCaP cell suspension was mixed with equal volume of matrigel (BD Biosciences, Bedford, MA) on ice and subcutaneously injected (200 μL) at 4 different sites (left/right hip and left/right shoulder) on Nu/Nu male mice (Charles River Laboratories, LaSalle, Canada) at density of 2 million cells/site. Tumors were periodically measured and the tumor volumes were calculated from the equation: Length•width^2•π/6. When tumors were fully formed and palpable, mice were divided into treatment groups. For intratumoral administration of the compound, 20 μL of peptides (2.5 μg/μL) or vehicle (5% Dimethyl sulfoxide in sterile saline) was administered directly into the tumor at interval of 48 hours. For intra-venous administration experiments, 100 μL of peptide solution (2 mg/kg) or vehicle (saline) was administered through tail vein at interval of 24 hours. […] Blood sampling (50–75 μL) from saphenous vein was performed weekly and plasma was stored at −80°C for Prostate-specific antigen (PSA) serum levels determination using a PSA EIA assay (ClinPro International, USA). Mice were housed under pathogen-free conditions and manipulations were performed in a biosafety cabinet. All experimental procedures were in accordance with the Canadian Council on Animal Care.

Series [6] in a line: Ex vivo plasmatic stability assay. It is filed as in vitro ADME. To be noted: both sexes, CD1; ex vivo mouse plasma; read-out: T½ plasma (converted). Here is the method: as §1
Series [7] has as its system LNCaP xenograft. Briefly: LNCaP xenograft, systemic (iv) administration. The settings on record: daily 2 mg/kg iv; similar in control group. It is filed as in vivo, Nu/Nu male mice. Here is the method:
For tumor implantation, trypsin-harvested LNCaP cell suspension was mixed with equal volume of matrigel (BD Biosciences, Bedford, MA) on ice and subcutaneously injected (200 μL) at 4 different sites (left/right hip and left/right shoulder) on Nu/Nu male mice (Charles River Laboratories, LaSalle, Canada) at density of 2 million cells/site. Tumors were periodically measured and the tumor volumes were calculated from the equation: Length•width^2•π/6. When tumors were fully formed and palpable, mice were divided into treatment groups. For intratumoral administration of the compound, 20 μL of peptides (2.5 μg/μL) or vehicle (5% Dimethyl sulfoxide in sterile saline) was administered directly into the tumor at interval of 48 hours. For intra-venous administration experiments, 100 μL of peptide solution (2 mg/kg) or vehicle (saline) was administered through tail vein at interval of 24 hours. The total tumor volume per animal was normalized using the following formula: (total tumor volume/total tumor volume at day 27 × 100). Blood sampling (50–75 μL) from saphenous vein was performed weekly and plasma was stored at −80°C for Prostate-specific antigen (PSA) serum levels determination using a PSA EIA assay (ClinPro International, USA). Mice were housed under pathogen-free conditions and manipulations were performed in a biosafety cabinet. […]

Series [8] deals with LNCaP prostate cancer cell line. The class given is cell-based. The settings on record: 72 h. Here is the method:
(§2) Cell lines were obtained from ATCC and maintained in RPMI-1640 5% FBS (DU145) and 10% FBS (LNCaP). For MTT proliferation assays, peptides were added 24 hours after seeding in 96-well plates as previously described and incubated 72 hours prior to addition of MTT reagent (Sigma-Aldrich, Canada) at final concentration of 1 mg/mL [21, 22]. Formazan salt was solubilized with 100 μL Isopropanol: HCl (24:1N) and metabolic activity was normalized relatively to vehicle-treated cells (Sterile bidistilled water). IC50 were determined using Prism 5.0 (GraphPad Software, USA).

The subject of series [9] is DU145 prostate cancer cell line. The class given is cell-based. To be noted: 72 h. Here is the method:
as §2

Series [10] can be described thus: Pharmacokinetic assay, intravenous 2 mg/kg, LC-MS/MS. The class given is in vivo. The settings on record: mouse, plasma, CD1 mice; for AUC: read-out: AUC calculated; for half-life: read-out: Half-life (in vivo plasma); for Vd: read-out: Volume of distribution. Here is the method:
To determine pharmacokinetic profiles of peptides, a single dose of 2 mg/kg was administered into systemic circulation from tail vein of CD1 mice (n = 4 animal/peptide). Blood was micro sampled on individual mouse at time 2.5, 5, 10, 20, 30 and 60 minutes. Plasma was collected by centrifugation and proteins were cleared from plasma using acetonitrile precipitation and supernatant was filtered using 0.2 μm PVDF centrifugal device (Canadian Life Science, Canada). Sample were analysed at PhenoSwitch Bioscience (Sherbrooke, Canada) by LC-MS/MS on a TripleTOF 5600 mass spectrometer (ABSciex, USA) equipped with DuoSpray source. Further information on mass spectrometry analyses and parameters used are presented in supplementary material.

In series [11] the target is T1, human recombinant and soluble PACE4 (Homo sapiens, UniProt P29122).
T1 construct: made in house; host or cells: S2 insect cells (Drosophila Schneider 2)
T1 sequence (P29122 150-969): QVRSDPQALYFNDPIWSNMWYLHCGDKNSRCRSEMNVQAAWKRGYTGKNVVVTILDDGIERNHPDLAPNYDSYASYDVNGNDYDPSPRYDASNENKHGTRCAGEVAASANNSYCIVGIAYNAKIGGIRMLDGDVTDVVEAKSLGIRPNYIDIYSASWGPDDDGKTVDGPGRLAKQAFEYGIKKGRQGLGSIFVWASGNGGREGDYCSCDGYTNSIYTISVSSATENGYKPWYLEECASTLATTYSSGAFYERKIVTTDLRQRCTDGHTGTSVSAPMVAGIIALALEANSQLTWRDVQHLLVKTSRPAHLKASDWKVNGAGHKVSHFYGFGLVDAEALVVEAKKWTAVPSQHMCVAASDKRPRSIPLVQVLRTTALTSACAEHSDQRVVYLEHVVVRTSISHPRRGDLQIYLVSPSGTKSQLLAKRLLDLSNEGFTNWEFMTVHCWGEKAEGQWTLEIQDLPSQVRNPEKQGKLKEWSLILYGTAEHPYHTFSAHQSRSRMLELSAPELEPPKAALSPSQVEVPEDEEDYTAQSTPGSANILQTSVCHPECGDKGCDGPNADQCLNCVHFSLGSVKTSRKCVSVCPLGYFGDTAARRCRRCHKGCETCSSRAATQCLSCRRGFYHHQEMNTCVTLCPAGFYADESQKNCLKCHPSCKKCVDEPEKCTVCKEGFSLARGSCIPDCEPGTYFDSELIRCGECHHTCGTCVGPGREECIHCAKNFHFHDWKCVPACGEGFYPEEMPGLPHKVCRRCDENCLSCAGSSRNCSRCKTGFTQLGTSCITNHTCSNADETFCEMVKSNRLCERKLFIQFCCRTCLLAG
To be noted: ref Kwiatkowska et al [22]; cited from earlier work.

Series [12] deals with T1, human recombinant and soluble PACE4. Briefly: Enzymatic assay, inhibition constant toward PACE4. It is filed as biochemical. Here is the method:
Inhibition constants (Ki) were determined using human recombinant and soluble PACE4 and furin produced in S2 insect cells and purified as previously described. The enzymatic assays were performed as described.

Like-named read-outs stand apart in the source and are kept apart here. Where a SMILES comes first, the peptide text is derived from it. [ ]: non-standard residue; d: D form. The star is where a group is joined. NOTA = O=C(O)CN1CCN(CC(=O)O)CCN(CC(=O)*)CC1; NH(4-amidinobenzyl) = N=C(N)c1ccc(CN*)cc1 Some results are limits rather than exact numbers.

As a reminder, the IC50 is the concentration needed to halve the response being measured. By clearance is commonly meant a measure of how efficiently the substance is removed, as volume per time. Higher therefore signals efficient removal. Usually AUC stands for concentration integrated over time.

Turning to `CC(=O)N[C@@H](CC(C)C)C(=O)N[C@@H](CC(C)C)C(=O)N[C@@H](CC(C)C)C(=O)N[C@@H](CC(C)C)C(=O)N[C@@H](CCCN=C(N)N)C(=O)N[C@H](C(=O)N[C@@H](CCCCN)C(=O)NCc1ccc(C(=N)N)cc1)C(C)C` [Ac-LLLLRVK-Amba] (Ac-LLLLRVK-{NH(4-amidinobenzyl)}), the half-life in [1] was above 4320 min. In addition, the T½ plasma in [2] is 12 ± 2 h.
As to `CC(=O)N[C@@H](CC(C)C)C(=O)N[C@@H](CC(C)C)C(=O)N[C@@H](CC(C)C)C(=O)N[C@@H](CC(C)C)C(=O)N[C@@H](CCCNC(=N)N)C(=O)N[C@H](C(=O)N[C@@H](CCCCN)C(=O)NCc1ccc(C(=N)N)cc1)C(C)C` [Ac-LLLLRVK-Amba] (Ac-LLLLRVK-{NH(4-amidinobenzyl)}), the IC50 is 40 ± 15 µM in series [3] and 25 ± 10 µM in series [4]. The “mean tumoral volume at day 59 compared to day 25” value in the series on LNCaP xenograft [5] is recorded as 100 ± 30%.
With `CC(=O)N[C@H](CC(C)C)C(=O)N[C@@H](CC(C)C)C(=O)N[C@@H](CC(C)C)C(=O)N[C@@H](CC(C)C)C(=O)N[C@@H](CCCNC(=N)N)C(=O)N[C@H](C(=O)N[C@@H](CCCCN)C(=O)NCc1ccc(C(=N)N)cc1)C(C)C` [Ac-[DLeu]LLLRVK-Amba] (Ac-[dL]LLLRVK-{NH(4-amidinobenzyl)}), the half-life at 0.5 μg/μL in [6] is 1080 ± 180 min. Moreover, the body weight loss with LNCaP xenograft [7] turned out to be 10%. The compound also displayed an IC50 in [8] of 40 ± 10 µM. This compound yielded an IC50 in series [9] of 25 ± 10 µM. In addition, in series [1], the half-life was above 4320 min. In series [10], the clearance came out at 0.5 ± 0.1 mL/min, the AUC is 2170 ng·h/mL, the half-life was found to be 9 ± 3 min and the Vd was found to be 0.006 ± 0.004 L.
For the compound `CC(=O)N[C@H](CC(C)C)C(=O)N[C@@H](CC(C)C)C(=O)N[C@@H](CC(C)C)C(=O)N[C@@H](CC(C)C)C(=O)N[C@@H](CCCNC(=N)N)C(=O)N[C@H](C(=O)N[C@@H](CCCCN)C(=O)N[C@@H](CCCNC(=N)N)C(N)=O)C(C)C` [Ac-[DLeu]LLLRVKR-NH2], the half-life in [1] was 2280 ± 480 min. Moreover, the “Ki PACE4” value in [11] is on record as 23 ± 1 nM. Also, the T½ plasma in [2] is listed as 8 ± 1 h.
With `CC(C)C[C@H](NC(=O)[C@H](CC(C)C)NC(=O)[C@H](CC(C)C)NC(=O)[C@@H](CC(C)C)NC(=O)CN1CCN(CC(=O)O)CCN(CC(=O)O)CC1)C(=O)N[C@@H](CCCNC(=N)N)C(=O)N[C@H](C(=O)N[C@@H](CCCCN)C(=O)NCc1ccc(C(=N)N)cc1)C(C)C` [NOTA-[DLeu]LLLRVK-Amba] ({NOTA}-[dL]LLLRVK-{NH(4-amidinobenzyl)}), the “Ki PACE4” value in series [12] amounted to 6 ± 2 nM.
As for Ac-LLLLRVKR-NH2 [Ac-LLLLRVKR-NH2], in series [1], the half-life was 1260 ± 120 min. Further, in series [10], the clearance worked out at 0.6 ± 0.1 mL/min, the AUC was 1670 ng·h/mL, the half-life was 8 ± 5 min and the Vd came out at 0.008 ± 0.007 L. Besides, the T½ plasma in [2] was 5.1 ± 0.8 h.
